Data: patent US12421276B2 (priority 2016, dated 2025)
Several values for one entry are separate records, joined by “and”; a condition that tells them apart may be missing. Identical values can stand only once. Like-named read-outs stand apart in the source and are kept apart here. Where a SMILES comes first, the peptide text is derived from it. [ ]: non-standard residue; d: D form. The star is where a group is joined. Hexanoyl = CCCCCC(=O)*; Ahx = NCCCCCC(=O)O

What was measured:
[1] = Plasma stability study, human plasma; type: in vitro ADME; conditions: Human plasma, 1 μM, 37° C.
Description: (§1) Human and rat plasma (K2 EDTA) were obtained from Bioreclamation.
(§2) Compounds were dissolved as 0.3 mM DMSO stocks. Compounds were transferred to the plasma at 1 μM on a 96-well deep well plate. After mixing, samples were transferred to several 96-well plates (25 μL/well), and incubated at 37° C. The extent of metabolism was calculated as the disappearance of the test compound, compared to the 0-min control reaction incubations. Propantheline was included as a positive control to verify assay performance.
(§3) At each of the time points, 150 μL of quench solution (50% acetonitrile, 50% methanol with 0.05% formic acid) with internal standard (bucetin for positive ESI mode and warfarin for negative ESI mode) was transferred to each well. Plates were sealed and centrifuged at 4° C. for 15 minutes at 4000 rpm. The supernatant was transferred to fresh plates for LC/MS/MS analysis.
(§4) Elution conditions are detailed in the table below.
(§5) Initial rates of the clearance of test compounds were calculated using linear regression of semi-log plot of % remaining of compounds versus time. The elimination rate constant (equals to −slope) of the linear regression was then used to determine t½ values.

[2] = Plasma stability study, rat plasma; type: in vitro ADME; conditions: Rat plasma, 1 μM, 37° C.
Description: as §1, §2, §3, §4, §5

[3] = type: in vivo, rat
Description: • 1. Eight (8) male JVC SD rats (purchased from Charles River Lab) were monitored daily for body condition and health status during the 3-5 days acclimation period. The rats were randomly assigned into […] (n=4). • 2. […] The dosed rats were individually placed into a metabolic cage, and have access to food and water at all times. The urine from each rat was collected daily from the metabolic cages, and kept in dry ice. • 4. At predose (0 min), 5 min, 15 min, 30 min, 1 hr, 2 hr, 8 hr, and 24 hr post dosing, approximately 200 ul blood samples were collected from each rat and transferred to EDTA tubes. • 5. The blood samples in EDTA vials were centrifuged at 4° C. and 6,000 rpm for 10 minutes to generate ˜100 μl of plasma per sample. Blood samples were processed as quickly as possible and remain no longer than 2 min at room temperature and no longer than 15 minutes at 4° C. prior to processing. • 6. All samples were transferred for bioanalytic assay using LCMS

Caco-2 cells = assay: Caco-2 permeability study with or without P-gp inhibitor GF120918; conditions: for Caco-2 Cells Permeability Recovery Rate: 1 hr, pH 7.4
Description: Buffer=HBSS, pH 7.4 with 5 mM HEPES
Caco-2 cell plates were obtained commercially and were maintained for 21 days at 37° C. with 5% CO2. Cells were washed with Hank's Balanced Salt Solution (HBSS) 30 min before starting the experiment. Test compound solutions were prepared by diluting from DMSO stock into HBSS buffer in the presence or absence of 10 μM of P-gp inhibitor GF120918. The final DMSO concentration is 0.2%. Prior to each experiment, cell monolayer integrity was verified by transendothelial electrical resistance (TEER). Transport experiment was initiated by adding test compounds to the apical (75 μL) side. Transport plates were incubated at 37° C. in a humidified incubator with 5% CO2. Samples were taken from the donor and acceptor compartments after 1 hr and analyzed by liquid chromatography with tandem mass spectrometry (LC/MS/MS).
Apparent permeability (Papp) values were calculated using the following equation: Papp=(dQ/dt)/A/C0
where dQ/dt is the initial rate of amount of test compound transported across cell monolayer, A is the surface area of the filter membrane, and C0 is the initial concentration of the test compound. C0 is calculated for each condition using a 4-point calibration curve.
Absorption quotient between the two assay conditions was calculated by the following equation:
Absorption quotient (AQ)=(Papp, A-B with inhibitor−Papp, A-B without inhibitor)/Papp, A-B with inhibitor where Papp, A-B with inhibitor and Papp, A-B without inhibitor represent the apparent permeability of test compound from the apical to basal side of the cellular monolayer in the presence and absence of 10 μM P-gp inhibitor GF120918, respectively.
All samples were analyzed on LC/MS/MS using an AB Sciex API 4000 instrument, coupled to a Shimadzu LC-20AD LC Pump system. Analytical samples were separated using a Waters Atlantis T3 dC18 reverse phase HPLC column (10 mm×2.1 mm) at a flow rate of 0.5 mL/min. The mobile phase consisted of 0.1% formic acid in water (solvent A) and 0.1% formic acid in acetonitrile (solvent B).

[4] = Metabolic stability in simulated gastric fluid (SGF), pH 1.2, with or without pepsin; type: in vitro ADME; conditions: 5 μM, 37° C.
Description: (§6) Metabolic Stability in SIF and SGF (Simulated Intestinal and Gastric Fluid)
Buffer 1=SGF without enzyme
Buffer 2=SGF with 0.32% pepsin
(§7) SIF was prepared freshly with 8.7 mM NaOH, 28.65 mM NaH2PO4, 105.85 mM NaCl, with a final pH of 6.8. SGF was prepared freshly with 34.2 mM NaCl, with a final pH of 1.2. Enzymes such as pepsin or pancreatin were added to some buffers. Human and rat plasma (K2 EDTA) were purchased from BioreclamationIVT.
(§8) Compounds were dissolved as 1.5 mM DMSO stocks. Compounds were transferred to SIF, SGF, or plasma at 5 μM on a 96-well deep well plate. After mixing, samples were transferred to several 96-well plates (25 μL/well), and incubated at 37° C. The extent of metabolism was calculated as the disappearance of the test compound, compared to the 0-min control reaction incubations. Candesartan Cilexetil and omeprazole were included as positive controls for SIF and SGF, respectively, to verify assay performance.
as §3, with “(100% acetonitrile” for “(50% acetonitrile, 50% methanol”, “0.1%” for “0.05%”
as §4, §5

[5] = Metabolic stability in simulated intestinal fluid (SIF), pH 6.8, with or without pancreatin; type: in vitro ADME; conditions: −Pancreatin, 5 μM, 37° C.
Description: as §6
Buffer 3=SIF without enzyme
Buffer 4=SIF with 1% pancreatin
as §7, §8
as §3, with “(100% acetonitrile” for “(50% acetonitrile, 50% methanol”, “0.1%” for “0.05%”
as §4, §5

[6] = Rat, PO, 10 mg/kg equiv., n = 4, analyte: Parent (BASE STRUCTURE)
[7] = rat, dosed as Base Structure 20 mg/kg, analyte Parent (Base Structure), Average
[8] = rat, dosed as Base Structure 20 mg/kg, analyte Parent (Base Structure), Combined (average ± std. dev.)
[9] = rat, dosed as Base Structure 20 mg/kg, analyte Parent (Base Structure), individual animals

For `CCCCCC(=O)N[C@@H](Cc1ccc(O)cc1)C(=O)N[C@H](C(=O)NCCCCCC(N)=O)[C@@H](C)CC` [Base Structure, N-hexanoic-L-tyrosine-L-isoleucine-(6)-aminohexanoic amide, reference compound] (Hexanoyl-Tyr-Ile-[Ahx]-NH2), the “Plasma Stability Half-Life” value [1] was 8.72083 days, the “Plasma Stability (% Parent Remaining) 0 min” value ([1]; 0 min) was 100% and the “Plasma Stability (% Parent Remaining) 60 min” value ([1]; 60 min) was 98%. The “Plasma Stability (% Parent Remaining) 120 min” value ([1]; 120 min) was 102%, the “Plasma Stability (% Parent Remaining) 240 min” value ([1]; 240 min) was 98% and the “Plasma Stability Half-Life” value [2] was 1095.1 min. For the same compound, the “Plasma Stability (% Parent Remaining) 0 min” value ([2]; 0 min) was 100%, the “Plasma Stability (% Parent Remaining) 60 min” value ([2]; 60 min) was 87% and the “Plasma Stability (% Parent Remaining) 120 min” value ([2]; 120 min) was 89%. The “Plasma Stability (% Parent Remaining) 240 min” value ([2]; 240 min) was 83%, the “AUC0-24” value [3, 6] was 0.4 ± 0.2 ng·h/mL and the “Cmax” value [3, 6] was 0.9 ± 0.5 ng/mL. For the same compound, the “Tmax” value [3, 6] was 24 ± 30 min, the “AUC 0-t” value [3, 7] was 0.4468 ng·h/mL and the Cmax [3, 7] was 0.9267 ng/mL. The Tlag [3, 7] was 0 h, the Tmax [3, 7] was 26.6 min and the “AUC 0-t” value [3, 8] was 0.4 ± 0.2 ng·h/mL. For the same compound, the Cmax [3, 8] was 0.9 ± 0.5 ng/mL, the Tlag [3, 8] was 0 ± 0 h and the Tmax [3, 8] was 24 ± 30 min. The “AUC 0-t” value [3, 9] was 0.6164 ng·h/mL and 0.5175 ng·h/mL and 0.2066 ng·h/mL, the Cmax [3, 9] was 0.689 ng/mL and 1.54 ng/mL and 0.551 ng/mL and the Tlag [3, 9] was 0 h. The Tmax [3, 9] was 4.8 min and 15 min and 60 min, the “Abs. Quotient” value (Caco-2 cells; (Papp A-B with inhibitor − without inhibitor)/Papp A-B with inhibitor) was 0.84 and 0.82 and the “Caco-2 Cells Permeability Recovery Rate” value (Caco-2 cells; +GF120918 (10 μM), 10 μM compound) was 83% and 96%. The “Caco-2 Cells Permeability Recovery Rate” value (Caco-2 cells; −GF120918, 10 μM compound) was 87% and 91%, the “SGF Stability (pH 1.2) Half-Life (min)” value ([4]; +Pepsin (0.32%)) was 26.0 min and the “SGF Stability (pH 1.2) 0 min” value ([4]; +Pepsin (0.32%)) was 100%. The “SGF Stability (pH 1.2) 60 min” value ([4]; +Pepsin (0.32%)) was 13%, the “SGF Stability (pH 1.2) 240 min” value ([4]; +Pepsin (0.32%)) was 0.2% and the “SGF Stability (pH 1.2) Half-Life (min)” value ([4]; −Pepsin) was “Neg”. For the same compound, the “SGF Stability (pH 1.2) 0 min” value ([4]; −Pepsin) was 100%, the “SGF Stability (pH 1.2) 60 min” value ([4]; −Pepsin) was 127% and the “SGF Stability (pH 1.2) 240 min” value ([4]; −Pepsin) was 122%. For the same compound, the “SIF Stability (pH 6.8) Half-Life (min)” value [5] was “Neg”, the “SIF Stability (pH 6.8) 0 min” value ([5]; 0 min) was 100% and the “SIF Stability (pH 6.8) 60 min” value ([5]; 60 min) was 119%. The “SIF Stability (pH 6.8) 240 min” value ([5]; 240 min) was 113%.
